# Reference: article PMC7999182, “Interaction of Remdesivir with Clinically Relevant Hepatic Drug Uptake Transporters” (Pharmaceutics, 2021)
# Changes are numbered by the printed parent chain. pIC50: −log10 of the molar value.
# Legend:
# [1] = biological target: T1, OATP1B1*5 (Homo sapiens, UniProt Q9Y6L6, V174A); experiment: Remdesivir uptake into HEK cells stably expressing OATP1B1*5 vs vector control; format: in vitro ADME; conditions: 0.5 µM remdesivir, 10 min
# T1 construct: expressed in transfected cells
# T1 sequence (Q9Y6L6 1-691 V174A): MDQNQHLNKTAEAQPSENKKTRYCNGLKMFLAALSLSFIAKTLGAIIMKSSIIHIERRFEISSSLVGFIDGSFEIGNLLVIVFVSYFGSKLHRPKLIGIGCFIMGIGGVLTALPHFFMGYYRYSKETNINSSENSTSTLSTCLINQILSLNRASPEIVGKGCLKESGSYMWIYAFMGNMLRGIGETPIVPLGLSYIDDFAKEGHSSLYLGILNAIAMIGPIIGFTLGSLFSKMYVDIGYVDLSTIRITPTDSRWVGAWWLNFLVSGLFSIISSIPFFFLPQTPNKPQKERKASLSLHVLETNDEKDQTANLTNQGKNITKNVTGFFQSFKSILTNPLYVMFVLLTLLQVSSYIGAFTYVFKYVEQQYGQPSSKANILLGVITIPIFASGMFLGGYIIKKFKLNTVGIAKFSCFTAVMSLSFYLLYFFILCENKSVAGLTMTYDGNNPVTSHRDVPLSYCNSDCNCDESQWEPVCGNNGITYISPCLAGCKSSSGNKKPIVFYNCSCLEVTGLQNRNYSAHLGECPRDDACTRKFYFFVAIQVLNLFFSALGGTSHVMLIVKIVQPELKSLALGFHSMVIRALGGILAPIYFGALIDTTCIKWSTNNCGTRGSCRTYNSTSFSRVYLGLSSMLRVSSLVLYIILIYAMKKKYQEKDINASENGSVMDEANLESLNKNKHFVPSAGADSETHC
# Excerpt: (§1) Generation, cultivation and characterization of human embryonic kidney (HEK) cells stably expressing OATP1B1 refseq (=OATP1B1*1a), OATP1B1*1b, OATP1B1*5 and OATP1B1*15 [18], OATP1B3 [19], OATP2B1 [13] and OCT1 [20] have been described previously. OATP1B1 cells were cultivated in minimal essential medium (Life Technologies, Paisley, UK) and OATP1B3, OATP2B1 and OCT1 cells were cultivated in Dulbecco’s modified Eagle medium (Sigma, Darmstadt, Germany). Cultivation media were supplemented with 10% fetal calf serum, 100 U/mL penicillin and 100 µg/mL streptomycin. Cells were grown at 37 °C and 5% CO2. Functionality of the cells was confirmed by measuring uptake of prototypic substrates (see Section 2.3 and supplementary material).
# Uptake assays were conducted at 37 °C according to previously described methods. For this, cells were seeded in 24-well plates (320,000 cells/well) and cultured for 2 days. Cells were then incubated for a further 24 h in culture medium with 5 mM butyrate (OATP1B3, OATP2B1, OCT1) or 10 mM butyrate (OATP1B1) to increase protein levels of recombinant transporters. […]
# (§2) Remdesivir was determined by UHPLC-MS-MS analysis on an Agilent 1290 infinity UHPLC system coupled to an Agilent 6495B triple quadrupole mass spectrometer (Agilent, Waldbronn, Germany) similar to a recently published method. […]
# [2] = biological target: T2, OATP1B1 (Homo sapiens, UniProt Q9Y6L6); experiment: Remdesivir uptake into HEK cells stably expressing OATP1B1 (*1a) vs vector control; format: in vitro ADME; conditions: 5 µM remdesivir, 10 min
# T2 construct: expressed in transfected cells
# T2 sequence (Q9Y6L6 1-691): T1 sequence (Q9Y6L6 1-691 V174A) with A174V
# Excerpt: as §1
# Uptake assays were conducted at 37 °C according to previously described methods. For this, cells were seeded in 24-well plates (320,000 cells/well) and cultured for 2 days. Cells were then incubated for a further 24 h in culture medium with 5 mM butyrate (OATP1B3, OATP2B1, OCT1) or 10 mM butyrate (OATP1B1) to increase protein levels of recombinant transporters. Before the uptake experiments, cells were washed with the respective pre-warmed (37 °C) uptake buffer. The compositions of the uptake buffers were as follows: for OATP1B1, OATP1B3, OATP2B1: 142 mM NaCl, 12.5 mM hydroxyethylpiperazine ethanesulfonic acid, 5 mM KCl, 1 mM KH2PO4, 1.5 mM CaCl2, 1.2 mM MgSO4, 5 mM glucose, pH 7.3; for OCT1: 145 mM NaCl, 5 mM hydroxyethylpiperazine ethanesulfonic acid, 3 mM KCl, 1 mM CaCl2, 0.5 mM MgCl2, 5 mM glucose, pH 7.4. Uptake was initiated by replacing this solution with uptake buffer containing different concentrations of remdesivir as indicated. […]
# as §2
# [3] = tested on: OATP2B1; set-up: method as in PMID 33435273; conditions: pyranine transport; cited from earlier work
structure (smiles),measurement,setting,value
CCC(CC)COC(=O)[C@H](C)N[P@](=O)(OC[C@H]1O[C@@](C#N)(c2ccc3c(N)ncnn23)[C@H](O)[C@@H]1O)Oc1ccccc1 [Remdesivir],Uptake vs vector-transfected control cells,[1],significantly lower uptake
same,Significance of uptake vs control cells,[2],Statistically significant uptake
same,Remdesivir uptake ratio,[2]; transporter-expressing vs control HEK cells,1.3
same,Accumulation vs vector-transfected control cells,[2]; OATP1B1*1a cells,moderately higher
same,pIC50,[3],5.42
